Seven molecules from BindingDB's records for doi:10.1016/j.bmcl.2003.11.074 (Kaohsiung Medical University, 2004) can be followed below.

Test [1] addresses T1, Lysozyme C-1 (Rattus norvegicus, UniProt P00697).
T1 sequence (P00697 whole entry): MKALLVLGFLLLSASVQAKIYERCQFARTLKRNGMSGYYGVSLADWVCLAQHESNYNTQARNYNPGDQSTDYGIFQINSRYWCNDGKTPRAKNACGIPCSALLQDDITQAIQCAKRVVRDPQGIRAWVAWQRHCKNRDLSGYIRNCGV
Briefly: ChEBML_100187. From the text: Inhibitory effect of compound on the release of lysozyme in rat neutrophils stimulated with fMLP/CB

Test [2] in a line: Inhibitory effect of compound on the release of Beta-glucuronidase in rat neutrophils stimulated with fMLP/CB.

The IC50 is the concentration that inhibits the measured activity by half. A high value points to lower potency.

Regarding `O=c1c(O)c(-c2ccc(O)cc2)oc2cc(OC3O[C@H](CO)[C@@H](O)[C@H](O)[C@H]3O)cc(O)c12` (stereo not given in full), the 50% inhibitory concentration (IC50) in test [1] and in test [2] was > 30 µM throughout.
Turning to `CN1CCN(CCCN2c3ccccc3Sc3ccc(C(F)(F)F)cc32)CC1`, 9 µM corresponded to half-maximal inhibition in test [1] (IC50).
With `C[C@](O)(CO)c1cc2c3c(ccc2o1)[C@@H]1COc2cc(O)ccc2[C@@H]1O3` [2-((11bR,12R)-9-Hydroxy-5b,11b-dihydro-6H-3,7,12-trioxa-benzo[a]cyclopenta[i]fluoren-2-yl)-propane-1,2-diol], the 50% inhibitory concentration (IC50) in test [1] and in test [2] was > 30 µM throughout.
In test [1], `O=c1c(-c2ccc(O)cc2O)coc2cc(O)cc(O)c12` [3-(2,4-Dihydroxy-phenyl)-5,7-dihydroxy-chromen-4-one] had a 50% inhibitory concentration (IC50) of 9.7 µM.
Take `COc1cc(O)ccc1-c1coc2cc(O)cc(O)c2c1=O` [5,7-Dihydroxy-3-(4-hydroxy-2-methoxy-phenyl)-chromen-4-one]: the IC50 in test [1] and in test [2] was > 30 µM each time.
Consider `O=c1cc(-c2ccc(O)cc2)oc2cc(O)ccc12` [7-hydroxy-2-(4-hydroxyphenyl)-4H-chromen-4-one], for which, in test [1], the half-inhibitory concentration (IC50) was > 30 µM.
On the same count and under the same terms, the same measure for `O=c1cc(-c2ccc(O)cc2)oc2cc(O)cc(O)c12` [Naringenin, 18]: 17.7 µM.
